# Data: patent US20100267697A1, “ION CHANNEL MODULATORS” (Wyeth, priority 2006, published 2010)
# Target: T1, human Cav2.2 (composed of the subunits α1, β3 and α2δ) (Homo sapiens, UniProt Q00975)
# T1 construct: expressed in transfected cells
# Experiment: FLIPR assay (TSA201 cells stably transfected with human Cav2.2 and human Kir2.3, FLUO-4 Ca2+ signal, KCl depolarization)
# Type: cell-based
# Settings: 70 mM KCl depolarization, average value
# Procedure, shortened: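 TSA201 cells co-expressing Cav2.2 (α1, β3, α2δ) and Kir2.3 were loaded with FLUO-4 for 1 h at room temperature. Compound in HBSS with 1% DMSO was preincubated 15 min, then cells were depolarized with 70 mM final KCl (with CaCl2 and HEPES) and the Ca2+ fluorescence was read on FLIPR.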
# T1 sequence (Q00975 whole entry): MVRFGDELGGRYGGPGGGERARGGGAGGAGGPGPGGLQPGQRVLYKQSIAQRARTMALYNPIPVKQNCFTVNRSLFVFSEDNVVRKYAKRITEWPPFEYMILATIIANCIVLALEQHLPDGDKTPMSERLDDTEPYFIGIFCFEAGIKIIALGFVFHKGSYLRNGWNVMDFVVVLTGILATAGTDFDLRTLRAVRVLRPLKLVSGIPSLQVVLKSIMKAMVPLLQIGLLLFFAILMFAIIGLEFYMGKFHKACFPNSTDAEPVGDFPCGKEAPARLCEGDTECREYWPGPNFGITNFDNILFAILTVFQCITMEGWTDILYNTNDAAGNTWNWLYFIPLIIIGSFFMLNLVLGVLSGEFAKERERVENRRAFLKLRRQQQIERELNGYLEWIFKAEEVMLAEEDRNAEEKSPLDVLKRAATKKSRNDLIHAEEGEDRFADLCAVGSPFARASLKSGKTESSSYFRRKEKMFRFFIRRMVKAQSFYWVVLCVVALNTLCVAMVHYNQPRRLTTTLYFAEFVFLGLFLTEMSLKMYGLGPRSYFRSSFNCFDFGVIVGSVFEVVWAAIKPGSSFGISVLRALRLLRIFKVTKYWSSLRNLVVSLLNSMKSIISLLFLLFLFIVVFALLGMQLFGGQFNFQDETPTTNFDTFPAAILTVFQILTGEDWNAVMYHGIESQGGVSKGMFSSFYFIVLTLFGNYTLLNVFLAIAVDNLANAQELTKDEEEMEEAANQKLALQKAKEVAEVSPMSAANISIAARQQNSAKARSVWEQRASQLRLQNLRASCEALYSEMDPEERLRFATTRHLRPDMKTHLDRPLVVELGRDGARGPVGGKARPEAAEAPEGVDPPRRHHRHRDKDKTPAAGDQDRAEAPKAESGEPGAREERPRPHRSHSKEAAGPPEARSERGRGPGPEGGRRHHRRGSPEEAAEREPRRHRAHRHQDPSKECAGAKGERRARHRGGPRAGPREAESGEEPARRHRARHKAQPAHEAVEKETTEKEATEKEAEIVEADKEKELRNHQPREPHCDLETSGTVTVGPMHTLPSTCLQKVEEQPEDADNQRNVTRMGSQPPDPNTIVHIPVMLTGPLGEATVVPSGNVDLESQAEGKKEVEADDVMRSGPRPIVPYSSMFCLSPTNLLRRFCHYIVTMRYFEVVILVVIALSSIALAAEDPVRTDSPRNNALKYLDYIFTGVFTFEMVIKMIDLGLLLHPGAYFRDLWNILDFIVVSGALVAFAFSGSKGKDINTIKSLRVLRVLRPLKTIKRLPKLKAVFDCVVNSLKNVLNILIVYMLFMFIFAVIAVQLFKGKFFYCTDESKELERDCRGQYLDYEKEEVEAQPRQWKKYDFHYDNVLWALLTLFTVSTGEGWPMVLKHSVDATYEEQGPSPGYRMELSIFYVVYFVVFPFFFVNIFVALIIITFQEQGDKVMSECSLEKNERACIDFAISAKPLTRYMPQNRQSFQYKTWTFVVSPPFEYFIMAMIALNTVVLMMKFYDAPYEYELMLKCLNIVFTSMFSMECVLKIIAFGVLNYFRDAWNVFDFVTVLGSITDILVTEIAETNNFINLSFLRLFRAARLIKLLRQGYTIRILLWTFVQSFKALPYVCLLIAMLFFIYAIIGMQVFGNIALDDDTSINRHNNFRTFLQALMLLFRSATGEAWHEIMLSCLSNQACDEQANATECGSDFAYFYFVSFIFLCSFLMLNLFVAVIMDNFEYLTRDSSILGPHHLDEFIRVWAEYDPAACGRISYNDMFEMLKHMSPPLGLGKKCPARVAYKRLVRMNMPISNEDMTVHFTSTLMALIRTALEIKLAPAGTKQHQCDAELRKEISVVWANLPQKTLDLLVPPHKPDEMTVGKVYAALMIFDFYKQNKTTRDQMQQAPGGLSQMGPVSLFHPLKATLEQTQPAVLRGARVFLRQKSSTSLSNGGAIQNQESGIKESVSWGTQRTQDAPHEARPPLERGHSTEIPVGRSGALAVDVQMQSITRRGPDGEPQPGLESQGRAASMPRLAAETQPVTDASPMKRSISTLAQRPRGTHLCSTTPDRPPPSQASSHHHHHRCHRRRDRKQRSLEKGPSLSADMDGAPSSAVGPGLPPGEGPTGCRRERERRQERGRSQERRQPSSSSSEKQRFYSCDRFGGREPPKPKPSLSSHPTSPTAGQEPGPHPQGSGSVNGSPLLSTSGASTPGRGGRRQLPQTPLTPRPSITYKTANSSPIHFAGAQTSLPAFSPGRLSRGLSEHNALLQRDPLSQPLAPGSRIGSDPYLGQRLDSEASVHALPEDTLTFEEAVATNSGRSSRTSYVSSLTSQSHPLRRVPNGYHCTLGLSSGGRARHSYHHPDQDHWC
# T1 sequence (P54284 whole entry partner): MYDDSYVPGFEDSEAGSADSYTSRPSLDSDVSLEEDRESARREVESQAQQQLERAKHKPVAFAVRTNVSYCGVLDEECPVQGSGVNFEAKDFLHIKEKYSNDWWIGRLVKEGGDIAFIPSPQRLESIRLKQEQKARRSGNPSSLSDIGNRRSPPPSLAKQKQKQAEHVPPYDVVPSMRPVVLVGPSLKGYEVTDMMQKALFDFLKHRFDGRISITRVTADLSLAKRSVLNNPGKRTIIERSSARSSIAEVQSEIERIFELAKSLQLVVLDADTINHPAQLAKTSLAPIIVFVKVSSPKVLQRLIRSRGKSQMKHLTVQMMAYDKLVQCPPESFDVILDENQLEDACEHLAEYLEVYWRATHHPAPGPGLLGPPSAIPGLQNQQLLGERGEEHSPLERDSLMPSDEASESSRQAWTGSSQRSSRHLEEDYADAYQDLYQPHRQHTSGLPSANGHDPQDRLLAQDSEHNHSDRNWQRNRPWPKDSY
# T1 sequence (P54289 25-946 partner limits assumed): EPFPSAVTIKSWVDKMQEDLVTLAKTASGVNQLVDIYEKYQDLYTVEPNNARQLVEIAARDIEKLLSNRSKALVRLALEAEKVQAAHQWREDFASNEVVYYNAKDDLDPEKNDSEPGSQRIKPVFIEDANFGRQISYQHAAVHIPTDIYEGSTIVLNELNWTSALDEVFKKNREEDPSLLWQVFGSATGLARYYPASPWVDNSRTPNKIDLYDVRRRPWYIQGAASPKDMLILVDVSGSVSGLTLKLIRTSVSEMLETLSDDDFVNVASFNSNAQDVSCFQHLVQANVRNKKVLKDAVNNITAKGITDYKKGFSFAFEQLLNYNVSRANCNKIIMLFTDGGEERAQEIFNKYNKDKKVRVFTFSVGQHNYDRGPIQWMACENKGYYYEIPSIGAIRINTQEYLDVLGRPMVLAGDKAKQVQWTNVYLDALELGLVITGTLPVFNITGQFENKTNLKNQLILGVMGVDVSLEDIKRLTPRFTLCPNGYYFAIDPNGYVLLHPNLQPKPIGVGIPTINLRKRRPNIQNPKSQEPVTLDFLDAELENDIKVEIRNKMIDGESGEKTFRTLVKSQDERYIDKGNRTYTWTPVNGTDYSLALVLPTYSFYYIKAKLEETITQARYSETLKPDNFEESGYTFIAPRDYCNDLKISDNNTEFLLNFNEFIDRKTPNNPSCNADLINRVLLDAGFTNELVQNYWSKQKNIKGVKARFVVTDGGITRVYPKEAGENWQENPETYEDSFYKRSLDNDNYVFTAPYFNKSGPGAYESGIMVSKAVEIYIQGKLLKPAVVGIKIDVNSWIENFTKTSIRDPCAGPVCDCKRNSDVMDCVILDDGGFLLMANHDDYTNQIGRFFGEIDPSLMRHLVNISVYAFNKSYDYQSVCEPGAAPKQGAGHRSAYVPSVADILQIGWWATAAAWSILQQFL
# T1 sequence (P54289 947-1103 partner limits assumed): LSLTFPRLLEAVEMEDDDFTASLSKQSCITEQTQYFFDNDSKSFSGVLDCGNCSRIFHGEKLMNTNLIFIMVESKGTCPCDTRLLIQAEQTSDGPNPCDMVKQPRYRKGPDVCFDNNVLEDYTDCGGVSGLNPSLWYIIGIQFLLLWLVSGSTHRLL
row,SMILES,IC50
1,"CCN(CC)c1nc(CN(C(C)=O)c2ccc(F)cc2)cs1 [Compound 219, N-{[2-(diethylamino)-1,3-thiaozl-4-yl]methyl}-N-(4-fluorophenyl)acetamide]",8.7 µM
2,"CC(=O)N(Cc1csc(N2CCC(C#N)CC2)n1)c1ccc(F)cc1 [Compound 220, N-{[2-(4-cyanopiperidin-1-yl)-1,3-thiazol-4-yl]methyl}-N-(4-fluorophenyl)acetamide]",16.6 µM
3,"CC(=O)N(Cc1csc(N(C)CCO)n1)c1ccc(F)cc1 [Compound 221, N-(4-fluorophenyl)-N-({2-[(2-hydroxyethyl)(methyl)amino]-1,3-thiazol-4-yl}methyl)acetamide]",37 µM
4,"CC(=O)N(Cc1csc(N2CCC(O)CC2)n1)c1ccc(F)cc1 [Compound 222, N-(4-fluorophenyl)-N-{[2-(4-hydroxypiperidin-1-yl)-1,3-thiazol-4-yl]methyl}acetamide]",22.4 µM
5,"CC(=O)N(Cc1csc(N2CCCC(O)C2)n1)c1ccc(F)cc1 (stereo not drawn) [Compound 223, N-(4-fluorophenyl)-N-{[2-(3-hydroxypiperidin-1-yl)-1,3-thiazol-4-yl]methyl}acetamide]",31.4 µM
6,"CC(=O)N(Cc1csc(N2CCC(CO)CC2)n1)c1ccc(F)cc1 [Compound 224, N-(4-fluorophenyl)-N-({2-[4-(hydroxymethyl)piperidin-1-yl]-1,3-thiazol-4-yl}methyl)acetamide]",12.3 µM
7,"CC(=O)N(Cc1csc(N2CCCC(CO)C2)n1)c1ccc(F)cc1 (stereo not drawn) [Compound 225, N-(4-fluorophenyl)-N-({2-[3-(hydroxymethyl)piperidin-1-yl]-1,3-thiazol-4-yl}methyl)acetamide]",16.4 µM
8,"CC(=O)N(Cc1ccc(N2CCCN(C)CC2)nc1)c1ccc(F)cc1 [Compound 226, N-(4-fluorophenyl)-N-{[6-(4-methyl-1,4-diazepan-1-yl)pyridin-3-yl]methyl}acetamide]",26.2 µM
9,"CC(=O)N(Cc1ccc(N2CCOCC2)nc1)c1ccc(F)cc1 [Compound 227, N-(4-fluorophenyl)-N-[(6-morpholin-4-ylpyridin-3-yl)methyl]acetamide]",35 µM
10,"CCN(CC)c1ccc(CN(C(C)=O)c2ccc(F)cc2)cn1 [Compound 228, N-{[6-(diethylamino)pyridin-3-yl]methyl}-N-(4-fluorophenyl)acetamide]",12.6 µM
11,"CC(=O)N(Cc1ccc(N2CCC(C#N)CC2)nc1)c1ccc(F)cc1 [Compound 229, N-{[6-(4-cyanopiperidin-1-yl)pyridin-3-yl]methyl}-N-(4-fluorophenyl)acetamide]",19.7 µM
12,"CC(=O)N(Cc1ccc(N(C)CCO)nc1)c1ccc(F)cc1 [Compound 230, N-(4-fluorophenyl)-N-({6-[(2-hydroxyethyl)(methyl)amino]pyridin-3-yl}methyl)acetamide]",45.3 µM
13,"CC(=O)N(Cc1ccc(N2CCC(O)CC2)nc1)c1ccc(F)cc1 [Compound 231, N-(4-fluorophenyl)-N-{[6-(4-hydroxypiperidin-1-yl)pyridin-3-yl]methyl}acetamide]",49.7 µM
14,"CC(=O)N(Cc1ccc(N2CCCC(O)C2)nc1)c1ccc(F)cc1 (stereo not drawn) [Compound 232, N-(4-fluorophenyl)-N-{[6-(3-hydroxypiperidin-1-yl)pyridin-3-yl]methyl}acetamide]",30.2 µM
15,"CC(=O)N(Cc1ccc(N2CCC(CO)CC2)nc1)c1ccc(F)cc1 [Compound 233, N-(4-fluorophenyl)-N-({6-[4-(hydroxymethyl)piperidin-1-yl]pyridin-3-yl}methyl)acetamide]",22.2 µM
16,"CC(=O)N(Cc1ccc(N2CCCC(CO)C2)nc1)c1ccc(F)cc1 (stereo not drawn) [Compound 234, N-(4-fluorophenyl)-N-({6-[3-(hydroxymethyl)piperidin-1-yl]pyridin-3-yl}methyl)acetamide]",13.9 µM
17,"CC(=O)N(Cc1ccc(N2CCC(CO)CC2)nc1)C1CCCC1 [Compound 235, N-cyclopentyl-N-({6-[4-(hydroxymethyl)piperidin-1-yl]pyridin-3-yl}methyl)acetamide]",36.4 µM
18,"CC(=O)N(Cc1ccc(N2CCN(C)CC2)nc1)C1CCCCC1 [Compound 236, N-cyclohexyl-N-{[6-(4-methylpiperzin-1-yl)pyridin-3-yl]methyl}acetamide]",29.4 µM
19,"CC(=O)N(Cc1ccc(N2CCC(CO)CC2)nc1)C1CCCCC1 [Compound 237, N-cyclohexyl-N-({6-[4-(hydroxymethyl)piperidin-1-yl]pyridin-3-yl}methyl)acetamide]",23.9 µM
20,"CCN(c1nc(CN(C(C)=O)C2CCC(C(C)(C)C)CC2)cs1)C1CC1 (stereo not drawn) [Compound 238, N-(4-tert-butylcyclohexyl)-N-({2-[cyclopropyl(ethyl)amino]-1,3-thiazol-4-yl}methyl)acetamide]",3.3 µM
21,"CC1CN(c2nc(CN(C(=O)C(C)(C)C)c3ccc(F)cc3)cs2)CC(C)O1 (stereo not drawn) [Compound 239, 2,2-dimethylpropanamide N-{[2-(2,6-dimethylmorpholin-4-yl)-1,3-thiazol-4-yl]methyl}-N-(4-fluorophenyl)-]",3.4 µM
22,"CC(C)(C)C(=O)N(Cc1csc(-c2cnc3ccccc3c2)n1)c1ccc(F)cc1 [Compound 240, N-(4-fluorophenyl)-2,2-dimethyl-N-[(2-quinolin-3-yl-1,3-thiazol-4-yl)methyl]propanamide]",10.1 µM
23,"CC(C)(C)C(=O)N(Cc1csc(-c2ccc(C(F)(F)F)cc2)n1)c1ccc(F)cc1 [Compound 241, N-(4-fluorophenyl)-2,2-dimethyl-N-({2-[4-(trifluoromethyl)phenyl]-1,3-thiazol-4-yl}methyl)propanamide]",6.7 µM
24,"CC(C)(C)C(=O)N(Cc1csc(-c2cccc(C(F)(F)F)c2)n1)c1ccc(F)cc1 [Compound 242, N-(4-fluorophenyl)-2,2-dimethyl-N-({2-[3-(trifluoromethyl)phenyl]-1,3-thiazol-4-yl]methyl)propanamide]",5.5 µM
25,"CC(C)(C)C(=O)N(Cc1csc(-c2ccccc2C(F)(F)F)n1)c1ccc(F)cc1 [Compound 243, N-(4-fluorophenyl)-2,2-dimethyl-N-({2-[2-(trifluoromethyl)phenyl]-1,3-thiazol-4-yl}methyl)propanamide]",4.1 µM
26,"CC(C)(C)C(=O)N(Cc1csc(-c2ccc(O)cc2)n1)c1ccc(F)cc1 [Compound 244, N-(4-fluorophenyl)-N-{[2-(4-hydroxyphenyl)-1,3-thiazol-4-yl]methyl}-2,2-dimethylpropanamide]",7.3 µM
27,"CC(C)(C)C(=O)N(Cc1csc(-c2cccc(O)c2)n1)c1ccc(F)cc1 [Compound 245, N-(4-fluorophenyl)-N-{[2-(3-hydroxyphenyl)-1,3-thiazol-4-yl]methyl}-2,2-dimethylpropanamide]",5.4 µM
28,"CC(C)(C)C(=O)N(Cc1csc(-c2ccccc2O)n1)c1ccc(F)cc1 [Compound 246, N-(4-fluorophenyl)-N-{[2-(2-hydroxyphenyl)-1,3-thiazol-4-yl]methyl}-2,2-dimethylpropanamide]",7.2 µM
29,"CC(C)(C)C(=O)N(Cc1csc(-c2ccc(F)cc2)n1)c1ccc(F)cc1 [Compound 247, N-(4-fluorophenyl)-N-{[2-(4-fluorophenyl)-1,3-thiazol-4-yl]methyl}-2,2-dimethylpropanamide]",5 µM
30,"CC(C)(C)C(=O)N(Cc1csc(-c2cccc(F)c2)n1)c1ccc(F)cc1 [Compound 248, N-(4-fluorophenyl)-N-{[2-(3-fluorophenyl)-1,3-thiazol-4-yl]methyl}-2,2-dimethylpropanamide]",5.3 µM
